Measured values as given in patent US9617246B2, “Thioether-piperidinyl orexin receptor antagonists” (MERCK SHARP & DOHME CORP., priority 2013, dated 2017).

How the values were obtained:
human orexin-2 receptor = human orexin-2 receptor (Homo sapiens (Human), UniProt O43614); experiment: FLIPR Ca2+ Flux Assay, orexin-2 receptor; format: cell-based; conditions: CHO cells, agonist 70 pM Ala-6,12 human orexin-A; read-out: hOX2R FLIPR IC50
Procedure: The utility of the compounds in accordance with the present invention as orexin receptor OX1R and/or OX2R antagonists may be readily determined without undue experimentation by methodology well known in the art, including the “FLIPR Ca^2+ Flux Assay” (Okumura et al., Biochem. Biophys. Res. Comm. 280:976-981, 2001). In a typical experiment the OX1 and OX2 receptor antagonistic activity of the compounds of the present invention was determined in accordance with the following experimental method. For intracellular calcium measurements, Chinese hamster ovary (CHO) cells expressing the rat orexin-1 receptor or the human orexin-2 receptor, are grown in Iscove's modified DMEM containing 2 mM L-glutamine, […], 1% hypoxanthine-thymidine supplement, 100 U/ml penicillin, 100 μg/ml streptomycin and 10% heat-inactivated fetal calf serum (FCS). The cells are seeded at 20,000 cells/well into Becton-Dickinson black 384-well clear bottom sterile plates coated with poly-D-lysine. All reagents were from GIBCO-Invitrogen Corp. The seeded plates are incubated overnight at 37° C. and 5% CO2. Ala-6,12 human orexin-A as the agonist is prepared as a 1 mM stock solution in 1% bovine serum albumin (BSA) and diluted in assay buffer (HBSS containing 20 mM HEPES, 0.1% BSA and 2.5 mM probenecid, pH7.4) for use in the assay at a final concentration of 70 pM. Test compounds are prepared as 10 mM stock solution in DMSO, then diluted in 384-well plates, first in DMSO, then assay buffer. On the day of the assay, cells are washed 3 times with 100 μl assay buffer and then incubated for 60 min (37° C., 5% CO2) in 60 μl assay buffer containing 1 μM Fluo-4AM ester, 0.02% pluronic acid, and 1% BSA. The dye loading solution is then aspirated and cells are washed 3 times with 100 μl assay buffer. 30 μl of that same buffer is left in each well. Within the Fluorescent Imaging Plate Reader (FLIPR, Molecular Devices), test compounds are added to the plate in a volume of 25 μl, incubated for 5 min and finally 25 μl of agonist is added. Fluorescence is measured for each well at 1 second intervals for 5 minutes and the height of each fluorescence peak is compared to the height of the fluorescence peak induced by 70 pM Ala-6,12 orexin-A with buffer in place of antagonist. For each antagonist, IC50 value (the concentration of compound needed to inhibit 50% of the agonist response) is determined. Alternatively, compound potency can be assessed by a radioligand binding assay (described in Bergman et. al. Bioorg. Med. Chem. Lett. 2008, 18, 1425-1430) in which the inhibition constant (Ki) is determined in membranes prepared from CHO cells expressing either the OX1 or OX2 receptor. The intrinsic orexin receptor antagonist activity of a compound which may be used in the present invention may be determined by these assays.

hOX1R = hOX1R (Homo sapiens, UniProt O43613); experiment: FLIPR Ca2+ Flux Assay, orexin-1 receptor; format: cell-based; conditions: CHO cells, agonist 70 pM Ala-6,12 human orexin-A

Sequence of human orexin-2 receptor (O43614 whole entry): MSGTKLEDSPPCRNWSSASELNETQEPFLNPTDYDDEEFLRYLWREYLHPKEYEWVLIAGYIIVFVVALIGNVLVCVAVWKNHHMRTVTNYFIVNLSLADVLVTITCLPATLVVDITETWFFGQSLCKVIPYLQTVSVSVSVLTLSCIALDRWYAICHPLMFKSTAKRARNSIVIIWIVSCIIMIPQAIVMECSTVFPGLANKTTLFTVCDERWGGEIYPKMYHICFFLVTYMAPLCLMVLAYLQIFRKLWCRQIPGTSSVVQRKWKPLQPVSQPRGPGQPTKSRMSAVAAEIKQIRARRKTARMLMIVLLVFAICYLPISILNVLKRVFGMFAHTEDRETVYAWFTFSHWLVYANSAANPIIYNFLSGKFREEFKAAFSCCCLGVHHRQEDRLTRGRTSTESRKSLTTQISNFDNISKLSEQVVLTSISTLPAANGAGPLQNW

Structure (SMILES)	IC50 (human orexin-2 receptor) [nM]	IC50 (hOX1R) [nM]
C[C@@H]1CC[C@@H](Sc2cc(C#N)ccn2)CN1C(=O)c1ccccc1Oc1ccccc1 [Example 29, 2-({(3R,6R)-6-methyl-1-[(2-phenoxyphenyl)carbonyl]piperidin-3-yl}sulfanyl)pyridine-4-carbonitrile]	62.7	10000
COC(=O)c1c(I)ccnc1S[C@@H]1CC[C@@H](C)N(C(=O)c2ccccc2-n2nccn2)C1 [Example 4, methyl 4-iodo-2-{[(3R,6R)-6-methyl-1-{[2-(2H-1,2,3-triazol-2-yl)phenyl]carbonyl}piperidin-3-yl]sulfanyl}pyridine-3-carboxylate]	23.6	54.4
CSc1ccccc1C(=O)N1C[C@H](Sc2cc(C#N)ccn2)CC[C@H]1C [Example 34, 2-{[(3R,6R)-6-methyl-1-{[2-(methylsulfanyl)phenyl]carbonyl}piperidin-3-yl]sulfanyl}pyridine-4-carbonitrile]	75.4	8720
COc1ccc(C(=O)N2C[C@H](Sc3cc(C#N)ccn3)CC[C@H]2C)c(-n2nccn2)n1 [Example 14, 2-{[(3R,6R)-1-{[6-Methoxy-2-(2H-1,2,3-triazol-2-yl)pyridin-3-yl]carbonyl}-6-methylpiperidin-3-yl]sulfanyl}pyridine-4-carbonitrile]	149	10000
C[C@@H]1CC[C@@H](Sc2cc(C#N)ccn2)CN1C(=O)c1ccccc1-c1ccccc1 [Example 28, 2-{[(3R,6R)-1-(biphenyl-2-ylcarbonyl)-6-methylpiperidin-3-yl]sulfanyl}pyridine-4-carbonitrile]	16.7	279
COC(=O)c1c(C)ccnc1S[C@@H]1CC[C@@H](C)N(C(=O)c2ccccc2-n2nccn2)C1 [Example 1, Methyl 4-methyl-2-{[(3R,6R)-6-methyl-1-{[2-(2H-1,2,3-triazol-2-yl)phenyl]carbonyl}-piperidin-3-yl]sulfanyl}pyridine-3-carboxylate]	22.2	27.8
Cc1cccc(C(=O)N2C[C@H](Sc3cc(C#N)ccn3)CC[C@H]2C)c1-n1nccn1 [Example 18, 2-{[(3R,6R)-6-methyl-1-{[3-methyl-2-(2H-1,2,3-triazol-2-yl)phenyl]carbonyl}piperidin-3-yl]sulfanyl}pyridine-4-carbonitrile]	14.4	803
COc1cccc(-n2nccn2)c1C(=O)N1C[C@H](Sc2cc(C#N)ccn2)CC[C@H]1C [Example 17, 2-{[(3R,6R)-1-{[2-methoxy-6-(2H-1,2,3-triazol-2-yl)phenyl]carbonyl}-6-methylpiperidin-3-yl]sulfanyl}pyridine-4-carbonitrile]	51.2	5880
C[C@@H]1CC[C@@H](Sc2ncccc2C(=O)O)CN1C(=O)c1ccccc1-n1nccn1 [Example 48, 2-{[(3R,6R)-6-Methyl-1-{[2-(2H-1,2,3-triazol-2-yl)phenyl]carbonyl}piperidin-3-yl]sulfanyl}pyridine-3-carboxylic acid]	626	6540
C[C@@H]1CC[C@@H](Sc2cc(C#N)ccn2)CN1C(=O)c1ccccc1-n1nccn1 [Example 9, 2-{[(3R,6R)-6-methyl-1-{[2-(2H-1,2,3-triazol-2-yl)phenyl]carbonyl}piperidin-3-yl]sulfanyl}pyridine-4-carbonitrile]	13.5	1410
C[C@@H]1CC[C@@H](Sc2cc(C#N)ccn2)CN1C(=O)c1ccccc1C1CC1 [Example 30, 2-({(3R,6R)-1-[(2-cyclopropylphenyl)carbonyl]-6-methylpiperidin-3-yl}sulfanyl)pyridine-4-carbonitrile]	18.3	4070
COC(=O)c1ccnc(S[C@@H]2CC[C@@H](C)N(C(=O)c3ccccc3-n3nccn3)C2)c1 [Example 13, methyl 2-{[(3R,6R)-6-methyl-1-{[2-(2H-1,2,3-triazol-2-yl)phenyl]carbonyl}piperidin-3-yl]sulfanyl}pyridine-4-carboxylate]	297	6310
Cc1cc(C#N)cc(S[C@@H]2CC[C@@H](C)N(C(=O)c3ccccc3-n3nccn3)C2)n1 [Example 2, 2-methyl-6-{[(3R,6R)-6-methyl-1-{[2-(2H-1,2,3-triazol-2-yl)phenyl]carbonyl}piperidin-3-yl]sulfanyl}pyridine-4-carbonitrile]	82.9	1540
